The structures appear in SMILES notation.

The test system of test [1] is CD34+ cells from peripheral blood. Briefly: AMPLIFICATION PROTOCOL: ex vivo amplification of hematopoietic progenitors. It is filed as cell-based, human. On the procedure: This is a strategy for the amplification of hematopoietic progenitors. The culture is formed as follows: CD34^+ cells from peripheral blood are isolated (as indicated in section II.A.1), and cultured for 12 days in Stem Span II medium (Stem Cell Technologies) supplemented with cytokines: SCF 100 ng/mL, FLT3-L 100 ng/mL, TPO 20 ng/mL, G-CSF 10 ng/mL. The amplification product is analyzed by quantification of proliferation (count on Malassez slides) and phenotypic analysis of CD34^+ cell subpopulations by flow cytometry. […] Vitisin B is also compared with the following stilbene-type molecules at 10 μM concentration: Resveratrol, Pallidol, E-Viniferin, Ampelopsin, Oxyresveratrol, Picateatannol, Gnetol
At the end of the hematopoietic cell amplification protocol, an analysis of cell proliferation and amplification of immature and committed cell populations is performed.
Cell proliferation is evaluated by counting cells on Malassez slides with Trypan blue exclusion of dead cells.
The amplification of cell populations is based on a phenotypic analysis relating to the evolution of the expression of membrane markers CD34 and CD133 by flow cytometry. These markers make it possible to define more or less immature cell populations organized hierarchically as follows: CD34^+CD133^+->CD34^+CD133^neg->CD34^negCD133^neg. To this end, cells are incubated with anti-CD34 (1:100,000) (BD Pharmingen) and anti-CD133 (1:100,000) (BD Pharmingen) antibodies for 15 minutes. The cells are then rinsed with a PBS solution and centrifuged (430×g, 10 min, 4° C.). After resuspension of the cell pellets in PBS, the cells are analyzed by flow cytometry (FACSCantoll, Becton Dickinson, San Jose, CA).
The proportions of each phenotypic population thus observed and the total amount of cells make it possible to calculate the rate of amplification of the most immature cells (CD34^+CD133+) compared with the amplification of more committed progenitors (CD34^+CD133^neg and CD34^negCD133^neg).

For test [2], the system named is peripheral blood CD34+ cells. Briefly: ERYTHRO 1 PROTOCOL: simplified two-phase erythrocyte differentiation. Format: cell-based, human. The settings on record: versus CTRL, FIG. 3. On the procedure:
b. ERYTHRO 1 PROTOCOL: Simplified Ex Vivo Erythrocyte Differentiation Protocol (in Two Phases) This protocol was applied to CD34^+ cells from peripheral and placental blood, pre-stimulated SP cells, CMP cells and MEP cells. For this culture, the cell populations of interest are isolated as indicated previously and cultured in IMDM culture medium supplemented as follows: • 15% BIT 9500 (Stem Cell Technologies). […] The various cell populations were seeded in 24-well plates at 200 000 cells/mL for CD34^+, CMPs and MEPs. All of the cells recovered after the “Amplification/pre-stimulation” step for SP cells (i.e. 5000-50 000 cells) were cultured in 24-well plates. This culture includes two phases: • Phase 1: D0 to D6, EPO-free culture • Phase 2: from D6, addition of 2 IU/ML EPO and extension of culturing up to D21 minimum and D28 maximum.
In order to test the effect of vitisin B in this context, the culturing is performed in the absence and presence of vitisin B: • CTRL condition: Absence of vitisin B throughout the entire protocol. • Test condition: Presence of vitisin B at 5, 10, 15, 20 or 30 μM for the entire duration of the protocol (phase 1+phase 2). During the culture protocol, the differentiation product is analyzed by quantifying proliferation (counting) and analyzing erythrocyte differentiation markers by means of flow cytometry, using the markers CD71 and CD235a. c. ERYTHRO 2 PROTOCOL: Three-Phase Erythrocyte Differentiation Protocol
During and at the end of the various erythrocyte differentiation protocols, cell proliferation and cell differentiation are analyzed. Cell proliferation is evaluated by counting of cells on Malassez slides, with Trypan blue exclusion of dead cells. The different populations and culture conditions are also analyzed by flow cytometry, so as to observe the appearance of erythrocyte differentiation markers and thus cell differentiation kinetics. […] After resuspension of the cell pellets in PBS, the cells are analyzed by flow cytometry (FACSCantoll, Becton Dickinson, San Jose, CA). […]

As for `Oc1ccc(C2Oc3ccc(/C=C/c4cc(O)cc5c4[C@H](c4cc(O)cc(O)c4)[C@@H](c4ccc(O)cc4)O5)cc3C2c2cc(O)cc3c2C(c2cc(O)cc(O)c2)C(c2ccc(O)cc2)O3)cc1` (stereo in doubt) [vitisin B, 5-[(2R,2'S,3R,3'S)-5-[(1E)-2-[(2S,3S)-3-(3,5-Dihydroxyphenyl)-2,3-dihydro-6-hydroxy-2-(4-hydroxyphenyl)-4-benzofuranyl]ethenyl]-2,2′,3,3′-tetrahydro-6′-hydroxy-2,2′-bis(4-hydroxyphenyl)[3,4′-bibenzofuran]-3′-yl]-1,3-benzenediol], the “amplification of the total amount of progenitors of the CD34+ phenotype” value in test [1] (10 μM, 12-day culture, FIG. 1) is recorded as “up to 250%”. Moreover, the “amplification of the CD34+CD133neg subpopulation (erythrocyte potential)” value in test [1] (10 μM, FIG. 1) was “induces amplification”. Besides, in test [1] (10 μM, FIG. 2), the “effect on the proportion and total amount of CD34+CD133neg cells” value is recorded as “convincing effect”. Besides, in test [1] (50 μM versus 10 μM), the “effect of increasing the dose on total CD34+ and CD34+CD133neg populations” value is listed as “no additional effect”. Besides, in test [2] (flow cytometry), the CD71 expression result is recorded as “more rapid decline” and the “acquisition of CD235a (GPA)” value was “earlier acquisition”. For the same compound, the “differentiation of CD34+ cells into erythrocyte precursors” value in test [2] (vitisin B 5-30 μM for the entire protocol) is “faster and greater differentiation”.

The values are drawn from patent publication US20260265694A1, “USE OF A VITISIN COMPOUND FOR THE PRODUCTION OF HEMATOPOIETIC CELLS” (ETABLISSEMENT FRANCAIS DU SANG, priority 2022, published 2026).
